For experiment [1], the system named is DNA methyltransferase (DNMT). The experiment is described as follows: DNA methyltransferase activity assay (EpiQuik kit, nuclear extracts of treated PC-3 cells). The class given is cell-based, human. Conditions: 72 hours, 5 μM (FIG. 7 legend; method says 2 μM). The method, then:
Black bars: PC-3 cells were treated 72 hours with either mahanine or compound 6a at 5 μM or compound 6, 7, 7a, 8, or 9 at 15 μM and then assayed for DNMT activity using the DNMT activity kit from Epigentek. Data are mean of three independent experiments ±SEM. Grey bars: Densitometry from RT-PCR blot where the amount of RASSF1A mRNA re-expressed by mahanine treatment is normalized to 100%.
DNA methyltransferase activity assay. PC-3 cells were plated in complete growth media, treated with either mahanine or compound 6a at 2 μM or compound 6, 7, 7a, 8, 9, 10 at 15 μM for 3 days and then harvested. Nuclear extracts were prepared according to manufacturer's protocol (Nuclear extraction kit, Epigentek). DNMT activity was measured using an EpiQuik DNA methyltransferase activity assay kit (Epigentek). Results were expressed as percent DNMT activity compared to the DMSO control as 100%.
The levels of DNMT activity in treated versus untreated prostate cancer cells were measured using a DNMT assay kit from Epigentek. […] These reduced DNMT activities correlate with the pattern of RASSF1A induction described above (FIG. 7, grey bars). The data imply that inhibition of DNMT prevents hypermethylation of the RASSF1A promoter region and consequently restores RASSF1A.

Experiment [2] concerns human prostate tumor xenografts (PC-3). The experiment is described as follows: PC-3 human prostate xenograft study. The class given is in vivo, mouse. To be noted: athymic Balb/c nude mice, 10 mg/kg IP every other day, over 25 days. The method, then: Male athymic Balb/c nude mice were injected with PC-3 cells and the resulting tumors allowed to grow for a week before dosing IP once a day every other day with 10 mg/kg compound 6a or DMSO control in 1:1 PEG/PBS. Data are presented as the mean±SEM (n=4).
Cell Culture for Xenograft. PC-3 cell line (ATCC, Manassas, Va.) was cultured in RPMI-1640 with L-glutamine (Mediatech Inc., Herdon, Va.) containing 5% fetal bovine serum (FBS), 2.5 mM L-glutamine at 37° C. with 5% CO2.
Xenograft Study. Male athymic Balb/c nude mice (18-22 g) were injected with 3×106 (0.3 mL) of the human prostate cancer cells (PC-3). The human prostate cancer cells were injected in the subcutaneous tissue of the right axillary region of the mice. One week after the injection, the mice were randomly sorted into two groups with four mice per group. A stock solution of compound 6a was obtained by dissolving 1 mg of compound in 1 μl DMSO. The stock was added to polyethylene glycol 400 (PEG) (Hampton) and PBS in a 1:1 ratio. The test concentrations were obtained by diluting with PEG/PBS. The tumor-bearing mice received an intraperitoneal injection (IP) with either 10 mg/kg of 6a or vehicle control once every other day for 4 weeks. At the same time, the tumor size of each mouse was measured by caliper and calculated by the formula: Length×width×height/2. […]
Background: In xenograft studies the graft and the host belong to different species.

A further experiment concerns PC-3 cells. The experiment is described as follows: BrdU labeling, DNA synthesis (Cell Proliferation ELISA BrdU). It counts as cell-based, human. To be noted: 5 μM compound, 24 hours. The method, then: PC-3 cells were plated in 96-well plates and treated with 5 μM of compound. After 24 hours, the cells were assayed for BrdU labeling using the Cell Proliferation ELISA BrdU kit from Roche; background BrdU incorporation levels (absent anti-BrdU-peroxidase solution) were subtracted and values were normalized to those of control untreated cells.
BrdU Labeling. For the BrdU experiment, PC-3 cells were seeded in 96-well plates at a density of 2×10^3 cells/well, treated with 5 μM of compound for 24 hr and assayed BrdU using the Cell Proliferation ELISA BrdU (chemiluminescence) (Roche Diagnostics, IN) kit according to the manufacturer's protocol. Briefly, 10 μL of 100 μM BrdU labeling solution was added to the cultured cells and were incubated for 1 hr at 37° C., the labeling solution was removed and the FixDenat solution provided with the kit was added for 30 min and incubated at room temperature. Cells were then incubated with anti-BrdU conjugated to peroxidase (1:1500) for 60 min. Finally, the plates were washed and 100 μL of substrate solution was added to each well, and the light emission was measured using a microplate luminometer (Harta Instruments, Inc., Gaithersburg, Md.).
To assess the levels of DNA synthesis within cells treated with mahanine compared to those treated with compounds 6-10, cultured cells were treated according to standard procedure with 5-bromo-2-deoxy-uridine (BrdU) after 24 hours of treatment (FIG. 2).
In general terms: Dividing cells build labelled thymidine or BrdU into new DNA.

As to `COc1ccc2c(c1)[nH]c1c(C)c(OS(=O)(=O)c3cccc4c(N(C)C)cccc34)ccc12` [Compound 6a, 7-Methoxy-1-methyl-9H-carbazol-2-yl 5-(dimethylamino)naphthalene-1-sulfonate], the “DNMT activity versus DMSO control” value in experiment [1] was “most potent inhibition”. Besides, in experiment [2], the “reduction of tumor volume compared to control” value is given as “roughly 40%”. For the same compound, the “DNA synthetic ability (BrdU labeling)” value in the experiment with PC-3 cells is given as “decrease in DNA synthetic ability”.
